Test results as given in patent US20240197755A1, “Pharmaceutical composition for use in the therapeutic treatment of cancer and complications of cancer” (priority 2016, published 2024).

Assays:
MCF-7 (breast cancer) = assay: Antiproliferative effect on MCF-7 cell line, 72 h exposure; assay type: cell-based, human; conditions: MCF-7, 72 hours of exposure
Description: (§1) Different human Hep3B (hepatocellular carcinoma), MCF-7 (breast cancer), DU-145 (prostate cancer) cell lines were studied. They were selected on the basis of their ability to overexpress at least one protein from among reptin, pontin, and survivin. The stromal cells were also studied in order to determine the impact of the composition according to the invention in the tumor microenvironment. These cells were maintained in DMEM and supplemented with 10% fetal bovine serum (FBS) and 1% antibiotic-antimycotic solution (MSP) containing penicillin, streptomycin, and amphotericin B under standard growth conditions (5% CO2, 37° C., humidified atmosphere). The compositions above were dissolved and diluted in DMSO.
(§2) The cells above were treated with increasing solutions for 72 h in complete cell media. All treatment and control protocols were prepared as described previously.

DU-145 (prostate cancer) = assay: Antiproliferative effect on DU-145 cell line, 72 h exposure; assay type: cell-based, human; conditions: DU-145, 72 hours of exposure
Description: as §1, §2

[1] = test system: Hep3B (hepatocellular carcinoma); assay: Antiproliferative effect on Hep3B cell line, 72 h exposure; assay type: cell-based, human; conditions: 72 hours of exposure
Description: as §1, §2

U251/AMD cells = conditions: cited from earlier work
HCCLM3 cells = conditions: cited from earlier work
[2] = rats, oral, 50 mg/kg, 18 consecutive days; cited from earlier work

Row | Compound | antiproliferative effect (MCF-7 (breast cancer)) | antiproliferative effect (DU-145 (prostate cancer)) | antiproliferative effect [1] | IC50 of U251/AMD cells (U251/AMD cells; AMD, with beta-elemene) [mg/L] | intracellular accumulation of AMD (U251/AMD cells; U251/AMD cells) | expression of the BDNF protein (HCCLM3 cells; HCCLM3 cells) | cell proliferation of HCCLM3 cells (HCCLM3 cells; as a function of concentration and time) | mortality and systemic toxicity [2]
1 | O=CC=Cc1ccccc1O [2-hydroxycinnamaldehyde] | more pronounced antiproliferative effect | more pronounced antiproliferative effect | more pronounced antiproliferative effect | – | – | – | – | –
2 | C=C[C@]1(C)CC[C@@H](C(=C)C)C[C@H]1C(=C)C [Composition 13-elemene, beta-elemene] | – | – | – | 0.051 | increases the intracellular accumulation of AMD | – | – | –
3 | C=C(C)[C@@H]1CC[C@]2(C)CC[C@]3(C)[C@H](CC[C@@H]4[C@@]5(C)CC[C@H](O)C(C)(C)[C@@H]5CC[C@]43C)[C@@H]12 [lupeol] | more pronounced antiproliferative effect | more pronounced antiproliferative effect | more pronounced antiproliferative effect | – | – | marked decrease | inhibits cell proliferation | neither mortality nor systemic toxicity
